Source: paper PMC10693528, “A high-throughput metabolomics in vitro platform for the characterization of hepatotoxicity” (Cell Biology and Toxicology, 2023)

Tested on: HepG2 cells
Experiment: LC-MS/MS targeted intracellular metabolomics
Assay type: cell-based, human
Details: Suppl Fig 11, C3, 48 h
Procedure: Metabolite profiling of cells was performed directly in the same 96-well plate according to a standardized protocol described below. In order to prevent any interaction with the cell material, the automatic sampler was adjusted to pick up the sample from the supernatant at a specified depth avoiding the contact with the bottom of the plate.
After the initial quenching step (50 μL isopropanol 80%), additional 70 μL of isopropanol 80%, containing internal standards (methionine-D3, tryptophan-D5, arginine-13C6-15N4, Boc-Ala-Gly-Gly-Gly-OH, coenzyme Q1, coenzyme Q2, coenzyme Q4) were added to each well. The internal standards were used for quality control by visual inspection (signal intensity, peak shape, retention time); they were not used for normalization. Afterwards, plates were shaken for 5 min, 750 rpm at 20 °C, and placed for 30 s in the ultrasonic device. Then, the plates were centrifugated for 10 min, at 5485 g, 15 °C. Further, 2.5 μL of the extract were injected each for reversed-phase and hydrophilic interaction liquid chromatography followed by MS/MS detection (AB Sciex QTrap 6500+) using the positive and negative ionization mode. For reverse-phase high-performance liquid chromatography (RP-HPLC, Ascentis Express C18, 5 cm × 2.1 mm, 2.7 μm Supelco), gradient elution was performed with mobile phase A, water/methanol/0.1 M ammonium formate (1:1:0.02, w/w), and B, methyl-tert-butylether/2-propanol/methanol/0.1 M ammonium formate/formic acid (4:2:1:0.07:0.035, w/w) 5.9 min linear gradient: 0 min 100% A, 0.5 min 75% A, 5.9 min 10% A; followed by 0% A until 6.7 min; re-equilibration at 100% A until 7.7 min; flow rate 600 μL/min; column temperature 40 °C HILIC (ZIC-HILIC, 2.1 × 100 mm, 3.5 μm, Supelco) gradient elution was performed with mobile phase C, acetonitrile/water (99:1, v/v) with 0.2% (v) acetic acid, and D, 7 mM ammonium acetate with 0.2% (v) acetic acid (5.0 min linear gradient: 0 min 100% C, 5 min 10% C; followed by a linear gradient back to 100%C until 6.5 min; re-equilibration at 100% C until 7.5 min; flow rate 600 μL/min; column temperature 40 °C.). Two LC-MS systems with identical configuration were used for the analysis. Normalization to lyophilized reference samples (see below) was used to compensate for variation from between analytical batches. The efficiency of this normalization procedure was checked by principal component analysis (PCA), confirming that Pool samples from different analytical batches clustered together.
Reference samples derived from lyophilized untreated HepG2 cells (technical control samples) were measured in parallel throughout the entire analytical process. Data were normalized against the median of these lyophilized HepG2 cells reference samples, to give normalized ratios (performed for each sample per metabolite). This compensated for inter- and intra-instrumental variation. To correct for small differences in cell numbers within and between different treatment groups, data were also normalized to the within sample median, as described in detail by (Ramirez et al. [2018]). For intracellular metabolomic analysis, the median of each sample was calculated across all the 221 measured metabolites.
To generate metabolic profiles for the different treatments, heteroscedastic t test (Welch test) was applied to log-transformed normalized metabolite data to compare treated groups with their respective controls.
Principal component analysis (PCA) and hierarchical clustering (HCA) analyses were performed using R software environment (https://www.r-project.org/). PCA was conducted using the ropls package (Thévenot et al. [2015]) with log10-transformed input data and standard scaling. HCA was performed using the pvclust package (Suzuki et al. [2019]), (https://CRAN.R-project.org/package=pvclust). Input: log10(Ratio), clustering method: Ward D2, distance method: Manhattan, bootstrapping: 10000 times.

CC(=O)N1CCN(c2ccc(OCC3COC(Cn4ccnc4)(c4ccc(Cl)cc4Cl)O3)cc2)CC1 (centres unmarked) [Ketoconazole]
2'-Deoxycytidine level vs controls: 0.76
5-Hydroxytryptophan level vs controls: 0.87
Carnitine level vs controls: 0.77
Ceramide (d16:1.C24:0) level vs controls: 0.48
Ceramide (d17:1.C24:0) level vs controls: 0.40
Ceramide (d18:1.C16:0) level vs controls: 0.74
Ceramide (d18:1.C18:0) level vs controls: 0.58
Ceramide (d18:1.C20:0) level vs controls: 0.38
Ceramide (d18:1.C21:0) level vs controls: 0.64
Ceramide (d18:1.C22:0) level vs controls: 0.54
Ceramide (d18:1.C23:0) level vs controls: 0.50
Ceramide (d18:1.C24:0) level vs controls: 0.60
Ceramide (d18:1.C24:1) level vs controls: 0.70
Ceramide (d18:2.C16:0) level vs controls: 0.55
Ceramide (d18:2.C18:0) level vs controls: 0.38
Ceramide (d18:2.C22:0) level vs controls: 0.39
Ceramide (d18:2.C23:0) level vs controls: 0.49
Ceramide (d18:2.C24:0) level vs controls: 0.48
Ceramide (d18:2.C24:1) level vs controls: 0.66
Ceramide (d18:2.C24:2) level vs controls: 0.36
Cholesterylester (C20:2) level vs controls: 0.58
Choline plasmalogen (C36:4) level vs controls: 1.23
Choline plasmalogen (C36:5) level vs controls: 1.44
Coenzyme Q10 level vs controls: 0.65
Glutamate level vs controls: 0.92
Glutathione (GSH) level vs controls: 0.90
Hexadecanoylcarnitine level vs controls: 1.97
Hexadecenoylcarnitine level vs controls: 3.61
Isopentenyl pyrophosphate (IPP) level vs controls: 0.50
Lysophosphatidylcholine (C14:0) level vs controls: 1.21
Lysophosphatidylcholine (C16:0) level vs controls: 1.96
Lysophosphatidylcholine (C16:1) level vs controls: 2.67
Lysophosphatidylcholine (C20:0) level vs controls: 1.34
Lysophosphatidylcholine (C20:1) level vs controls: 1.07
Lysophosphatidylcholine (C20:4) level vs controls: 6.43
Lysophosphatidylcholine (C22:0) level vs controls: 1.53
Lysophosphatidylcholine (C24:1) level vs controls: 2.21
Lysophosphatidylethanolamine (C16:0) level vs controls: 0.82
Lysophosphatidylethanolamine (C18:0) level vs controls: 1.22
Lysophosphatidylethanolamine (C20:4) level vs controls: 4.71
Lysophosphatidylethanolamine (C22:6) level vs controls: 4.79
N-Acetylaspartate level vs controls: 0.69
N-Acetylserine level vs controls: 0.84
Octadecenoylcarnitine level vs controls: 3.35
Pantothenic acid level vs controls: 0.85
Phosphatidylcholine (C32:0) level vs controls: 0.81
Phosphatidylcholine (C34:0) level vs controls: 0.81
Phosphatidylcholine (C34:1) level vs controls: 0.79
Phosphatidylcholine (C34:2) level vs controls: 0.89
Phosphatidylcholine (C34:3) level vs controls: 1.19
Phosphatidylcholine (C36:1) level vs controls: 0.77
Phosphatidylcholine (C36:2) level vs controls: 0.64
Phosphatidylcholine (C36:3) level vs controls: 0.89
Phosphatidylcholine (C36:4) level vs controls: 0.67
Phosphatidylcholine (C36:5) level vs controls: 0.66
Phosphatidylcholine (C38:4) level vs controls: 1.06
Phosphatidylcholine (C38:6) level vs controls: 0.74
Phosphatidylcholine (C40:6) level vs controls: 1.10
Phosphatidylcholine (C40:7) level vs controls: 1.16
Phosphatidylcholine (C40:8) level vs controls: 1.11
Phosphatidylethanolamine (C32:0) level vs controls: 0.86
Phosphatidylethanolamine (C34:0) level vs controls: 0.73
Phosphatidylethanolamine (C34:1) level vs controls: 0.82
Phosphatidylethanolamine (C36:0) level vs controls: 0.70
Phosphatidylethanolamine (C36:1) level vs controls: 0.78
Phosphatidylethanolamine (C36:2) level vs controls: 0.93
Phosphatidylethanolamine (C36:4) level vs controls: 0.96
Phosphatidylethanolamine (C38:3) level vs controls: 0.90
Phosphatidylethanolamine (C38:4) level vs controls: 1.10
Phosphatidylethanolamine (C38:5) level vs controls: 1.10
Phosphatidylethanolamine (C38:6) level vs controls: 0.86
Phosphatidylethanolamine (C40:7) level vs controls: 1.09
Phosphocholine level vs controls: 0.82
Pipecolic acid level vs controls: 0.86
Proline level vs controls: 0.79
Pyridoxal level vs controls: 0.82
S-Adenosylhomocysteine level vs controls: 0.69
Sphingomyelin (d32:1) level vs controls: 1.49
Sphingomyelin (d32:2) level vs controls: 1.28
Sphingomyelin (d33:1) level vs controls: 1.18
Sphingomyelin (d34:0) level vs controls: 2.87
Sphingomyelin (d34:2) level vs controls: 1.31
Sphingomyelin (d35:1) level vs controls: 1.86
Sphingomyelin (d35:2) level vs controls: 1.71
Sphingomyelin (d36:1) level vs controls: 1.62
Sphingomyelin (d36:2) level vs controls: 1.45
Sphingomyelin (d36:3) level vs controls: 1.48
Sphingomyelin (d37:1) level vs controls: 1.49
Sphingomyelin (d38:1) level vs controls: 1.42
Sphingomyelin (d38:2) level vs controls: 1.21
Sphingomyelin (d39:1) level vs controls: 1.79
Sphingomyelin (d40:1) level vs controls: 1.85
Sphingomyelin (d40:2) level vs controls: 1.67
Sphingomyelin (d41:1) level vs controls: 1.75
Sphingomyelin (d41:2) level vs controls: 1.88
Sphingomyelin (d42:1) level vs controls: 1.54
Sphingomyelin (d42:2) level vs controls: 1.83
Taurine level vs controls: 1.32
Tetradecanoylcarnitine level vs controls: 2.20
Threonine level vs controls: 0.85
Triacylglycerol (C30:0.C18:1) level vs controls: 0.61
Triacylglycerol (C32:0.C16:0) level vs controls: 0.23
Triacylglycerol (C32:0.C16:1) level vs controls: 0.51
Triacylglycerol (C34:0.C16:0) level vs controls: 0.16
Triacylglycerol (C34:0.C17:0) level vs controls: 0.34
Triacylglycerol (C34:0.C18:0) level vs controls: 0.14
Triacylglycerol (C34:0.C18:1) level vs controls: 0.31
Triacylglycerol (C34:1.C16:0) level vs controls: 0.44
Triacylglycerol (C34:1.C18:1) level vs controls: 0.83
Triacylglycerol (C34:1.C18:3) level vs controls: 1.33
Triacylglycerol (C34:2.C18:0) level vs controls: 0.68
Triacylglycerol (C34:2.C18:1) level vs controls: 1.31
Triacylglycerol (C36:1.C18:0) level vs controls: 0.27
Triacylglycerol (C36:1.C18:1) level vs controls: 0.61
Triacylglycerol (C36:2.C18:1) level vs controls: 1.14
Triacylglycerol (C36:3.C18:1) level vs controls: 1.57
Triacylglycerol (C36:3.C18:2) level vs controls: 2.03
Triacylglycerol (C36:4.C16:0) level vs controls: 1.15
Triacylglycerol (C36:4.C18:0) level vs controls: 1.19
myo-Inositol-2-phosphate level vs controls: 0.50
Sphingomyelin (d34:1) level vs controls (first of two lines with this name): 1.40
Sphingomyelin (d34:1) level vs controls (second of two lines with this name): 1.16
